US20070270488A1, “Treatment and Assays” (The Queen's University of Belfast, priority 2004, published 2007)

Legend:
resected stage III CRC = conditions: adjuvant 5-FU-based chemotherapy, patients with resected stage III CRC; cited from earlier work
[1] = test system: p53^−/− HCT116 parental cells; assay: Flow cytometry cell cycle/apoptosis, p53^−/− HCT116 parental cells; type: cell-based, human; conditions: 72 hours
Experimental: (§4) Parental and drug-resistant HCT116 cell lines were grown in McCoy's 5A medium supplemented with 10% dialysed foetal calf serum (FCS), 50 μg/ml penicillin-streptomycin, 2 mM L-glutamine and 1 mM sodium pyruvate (all from GIBCO Invitrogen Corporation, Paisley, Scotland) and maintained at 37° C. in a humidified atmosphere containing 5% CO2. 5-FU-resistant p53^+/+ and p53^−/− HCT116 cells were maintained in the presence of 2 μM and 4 μM 5-FU respectively. […] Prior to each experiment, resistant sub-lines were cultured in the absence of drug for 48 hours.
(§5) Flow cytometry. Cells were seeded at 5×10^4 cells per well in 6-well plates. […] Seventy-two hours post-treatment, cells were harvested in 5 ml of 1× PBS/0.5 mM EDTA and pelleted by centrifugation at 1000 rpm/4° C. for 5 minutes. Cell pellets were washed once with 1× PBS/1% FCS, fixed in 70% ethanol and stained with propidium iodide. Analyses were performed on a Beckman Coulter Epics XL flow cytometer (Miami, Fla.).

[2] = test system: p53^−/− oxaliplatin-resistant HCT116 cells; assay: MTT cytotoxicity assay, p53^−/− oxaliplatin-resistant HCT116 cells; type: cell-based, human; conditions: p53^−/− oxaliplatin-resistant, MTT, 72 h; read-out: IC50(72 h)
Experimental: (§1) Tissue culture. HCT116 p53^+/+ and p53^−/− isogenic human colon cancer cells were kindly provided by Professor Bert Vogelstein (John Hopkins University, Baltimore, Md.). Drug-resistant HCT116 sub-lines were developed in the inventors' laboratory by repeated exposure to stepwise increasing concentrations of 5-FU, CPT-11 or oxaliplatin over a period of approximately ten months. Parental and drug-resistant HCT116 cell lines were grown in McCoy's 5A medium supplemented with 10% dialysed foetal calf serum (FCS), 50 μg/ml penicillin-streptomycin, 2 mM L-glutamine and 1 mM sodium pyruvate (all from GIBCO Invitrogen Corporation, Paisley, Scotland) and maintained at 37° C. in a humidified atmosphere containing 5% CO2. 5-FU-resistant p53^+/+ and p53^−/− HCT116 cells were maintained in the presence of 2 μM and 4 μM 5-FU respectively. CPT-11-resistant p53^+/+ and p53^−/− HCT116 cells were maintained in the presence of 1 μM and 3 μM CPT-11 respectively. […] Prior to each experiment, resistant sub-lines were cultured in the absence of drug for 48 hours.
(§2) Cytotoxicity studies. Cells were seeded at 2000 cells per well in 96-well microtiter plates. After 48 hours, cells were treated with a range of concentrations of 5-FU, CPT-11 or oxaliplatin.
(§3) After 72 hours, 25 μl of MTT dye (5 mg/ml) was added to each well and the plates were incubated at 37° C. for 3 hours. Dark-blue formazan crystals formed by live cells were dissolved in 200 μl of DMSO and absorbance in individual wells was determined at 570 nm using an Emax precision microplate reader (Molecular Devices, Sunnyvale, Calif.).

[3] = test system: p53^+/+ 5-FU-resistant HCT116 cells; assay: MTT cytotoxicity assay, p53^+/+ 5-FU-resistant HCT116 cells; type: cell-based, human
Experimental: (§6) Tissue culture. HCT116 p53^+/+ and p53^−/− isogenic human colon cancer cells were kindly provided by Professor Bert Vogelstein (John Hopkins University, Baltimore, Md.). […] Parental and drug-resistant HCT116 cell lines were grown in McCoy's 5A medium supplemented with 10% dialysed foetal calf serum (FCS), 50 μg/ml penicillin-streptomycin, 2 mM L-glutamine and 1 mM sodium pyruvate (all from GIBCO Invitrogen Corporation, Paisley, Scotland) and maintained at 37° C. in a humidified atmosphere containing 5% CO2. 5-FU-resistant p53^+/+ and p53^−/− HCT116 cells were maintained in the presence of 2 μM and 4 μM 5-FU respectively. […] Prior to each experiment, resistant sub-lines were cultured in the absence of drug for 48 hours.

[4] = test system: p53^+/+ oxaliplatin-resistant HCT116 cells; assay: MTT cytotoxicity assay, p53^+/+ oxaliplatin-resistant HCT116 cells; type: cell-based, human; conditions: p53^+/+ oxaliplatin-resistant, MTT, 72 h; read-out: IC50(72 h)
Experimental: as §1, §2, §3

[5] = test system: HCT116 p53^−/− parental cells; assay: MTT cytotoxicity assay, HCT116 p53^−/− parental cells; type: cell-based, human
Experimental: as §1, §2, §3

[6] = test system: p53^−/− 5-FU-resistant HCT116 cells; assay: MTT cytotoxicity assay, p53^−/− 5-FU-resistant HCT116 cells; type: cell-based, human
Experimental: as §6

p53^+/+ HCT116 cells = assay: PARP cleavage immunoblotting, p53^+/+ HCT116 cells; type: cell-based, human; conditions: 5 μM, 48 hours, Western blot
Experimental: (§7) Immunoblotting. Cells, were seeded at 1×10^6 cells per plate in 90 mm tissue culture dishes. […] After 48 hours, cells were harvested and resuspended in 200 μl of 1× RIPA buffer (20 mM TRIS pH7.4, 150 mM NaCl, 1 mM EDTA pH8.0, 1% Triton X-100, 0.1% SDS). Cells were lysed and centrifuged at 13,200 rpm/4° C. for 15 minutes to remove cell debris.
(§8) Protein concentrations were determined using the BCA protein assay reagent (Pierce, Rockford, Ill.). Twenty micrograms of each protein sample were resolved by SDS-PAGE and transferred to a PVDF membrane by electroblotting. Immunodetection was performed using anti-PARP or anti-β-tubulin mouse monoclonal antibodies and a 1/2000 dilution of a horseradish peroxidase-conjugated sheep anti-mouse secondary antibody (Amersham, Buckinghamshire, England). The fluorescent signal was detected using the Super Signal chemiluminescent detection system (Pierce) according to the manufacturer's instructions.

[7] = test system: p53^−/− CPT-11-resistant HCT116 cells; assay: Flow cytometry cell cycle/apoptosis, p53^−/− CPT-11-resistant cells; type: cell-based, human; conditions: p53^−/− CPT-11-resistant cell line, data not shown
[8] = test system: p53^−/− CPT-11-resistant HCT116 cells; assay: MTT cytotoxicity assay, p53^−/− CPT-11-resistant HCT116 cells; type: cell-based, human
Experimental: as §6

[9] = test system: HCT116 p53^+/+ parental cells; assay: MTT cytotoxicity assay, HCT116 p53^+/+ parental cells; type: cell-based, human; conditions: HCT116 p53^+/+ parental, 72 h, read-out: IC50(72 h)
Experimental: as §1, §2, §3

[10] = test system: p53^+/+ CPT-11-resistant HCT116 cells; assay: MTT cytotoxicity assay, p53^+/+ CPT-11-resistant HCT116 cells; type: cell-based, human; conditions: p53^+/+ CPT-11-resistant, MTT, 72 h; read-out: IC50(72 h)
Experimental: as §6

p53^−/− HCT116 cells = assay: PARP cleavage immunoblotting, p53^−/− HCT116 cells; type: cell-based, human; conditions: 5 μM, 48 hours, Western blot
Experimental: as §7, §8

[11] = test system: p53^+/+ HCT116 parental cells; assay: Flow cytometry cell cycle/apoptosis, p53^+/+ HCT116 parental cells; type: cell-based, human; conditions: 72 hours
Experimental: as §4, §5

advanced CRC = conditions: monotherapy; cited from earlier work
[12] = test system: p53^+/+ 5-FU-resistant HCT116 cells; assay: Flow cytometry cell cycle/apoptosis, p53^+/+ 5-FU-resistant cells; type: cell-based, human; conditions: 72 hours
Experimental: as §4, §5

[13] = test system: p53^−/− 5-FU-resistant HCT116 cells; assay: Flow cytometry cell cycle/apoptosis, p53^−/− 5-FU-resistant cells; type: cell-based, human; conditions: 1 μM, 5 μM and 10 μM, relative to untreated control cells
Experimental: as §1
Flow cytometry. Cells were seeded at 5×10^4 cells per well in 6-well plates. After 48 hours, cells were treated with a range of concentrations of 5-FU, CPT-11 or oxaliplatin. Seventy-two hours post-treatment, cells were harvested in 5 ml of 1× PBS/0.5 mM EDTA and pelleted by centrifugation at 1000 rpm/4° C. for 5 minutes. […]

O=c1[nH]cc(F)c(=O)[nH]1 [5-FU]
improvement of disease-free survival (resected stage III CRC): 35% | improvement of overall survival (resected stage III CRC): 22% | cell cycle distribution ([1]; 1 μM): arrested in S-phase | cell cycle distribution ([1]; 5 μM and 10 μM): majority of p53^−/− parental cells had DNA content >4N | drug-induced apoptosis in p53^−/− compared to p53^+/+ parental cells ([1]; range of concentrations): significantly less apoptosis | IC50 [2]: 22 µM | increase in IC50 (72 hr) compared to parental cells ([3]; p53^+/+ 5-FU-resistant vs p53^+/+ parental): 3.0 fold | IC50 ([3]; p53^+/+ 5-FU-resistant, MTT, 72 h, read-out: IC50(72 h)): 12.7 µM | IC50 [4]: 3.6 µM | IC50 ([5]; HCT116 p53^−/− parental, MTT, 72 h, read-out: IC50(72 h)): 19.7 µM | increase in IC50 (72 h) dose in p53^−/− compared to p53^+/+ cells ([5]; parental HCT116 p53^−/− vs p53^+/+): 4.6 fold | increase in IC50 (72 hr) compared to parental cells ([6]; p53^−/− 5-FU-resistant vs p53^−/− parental): 9.0 fold | IC50 ([6]; p53^−/− 5-FU-resistant, MTT, 72 h, read-out: IC50(72 h)): 178 µM | PARP cleavage (p53^+/+ HCT116 cells): observed | cross-resistance examined using cell cycle analyses [7]: no evidence of cross-resistance | increase in IC50 (72 hr) compared to parental cells ([8]; p53^−/− CPT-11-resistant vs p53^−/− parental): ~2 fold | IC50 ([8]; p53^−/− CPT-11-resistant, MTT, 72 h, read-out: IC50(72 h)): 47 µM | IC50 [9]: 4.3 µM | IC50 [10]: 4.2 µM | PARP cleavage (p53^−/− HCT116 cells): not | cell cycle distribution ([11]; 1 μM): S-phase arrest and evidence of polyploidy | cell cycle distribution ([11]; 5 μM and 10 μM): arrested in G2/M-phase | sub-G0/G1 content ([11]; 5 μM and 10 μM, ~4% in control samples): 30-35% | response rates (advanced CRC): 10 to 15% | cell cycle distribution ([12]; 1 μM): no change in cell cycle profile | cell cycle distribution ([12]; 5 μM and 10 μM): majority of cells had arrested at the G1/S boundary | induction of apoptosis compared to parental cells ([12]; 5 μM and 10 μM): significantly reduced | cell cycle distribution [13]: no change in cell cycle profile
